Laboratory results as given in patent publication US20040028610A1, “Method of increasing the sensitivity of mammography” (priority 2003, published 2004).
Entries after “also recorded” stand apart in the source; their conditions may differ.

Key:
breast tissue [1] = test: Treatment with parenteral (intramuscular) androgen preparation, then mammography and manual breast examination; type: in vivo, human (pre and postmenopausal women)
Description: Patients in need of breast cancer examinations were provided parenteral administration of androgen preparations in the clinical setting. Lakeview Pharmacy, Inc. prepared the compounded equivalent of Depo-Testosterone (Testosterone Cypionate 200 mg/ml dissolved in Cottonseed Oil and preserved with Benzyl Benzoate USP and Benzyl Alcohol NF.) in a multi-use vial. The androgen preparation was administered in a dose of about 150 mg to about 200 mg per month for the treatment of fibrocystic breast disorders. The treating physician delivered the preparation intramuscularly in a single dose. The preparation was given to approximately 40 pre and postmenopausal women ranging in age from 24 to 80 years of age. The patients were then scheduled for a mammogram at least one month but not more than three months after commencement of administration of the androgen preparation.
(§1) In advance of the mammographic procedure, patients were instructed to not wear deodorant (the crystals cause difficulty in reading the films). […] A Picker Digital Mammogram was used to take the frontal and side views of the breast tissue bilaterally. Minimums of two views were taken per breast. The films were then interpreted by a radiologist with experience in interpreting mammograms and graded with the BI-RADS system.

breast tissue [2] = test: Treatment with topical androgen preparation (PCA cream), then mammography and manual breast examination; type: in vivo, human (pre and postmenopausal women)
Text: as §1
Patients in need of breast cancer examinations were provided topical formulations for administration of androgen preparations in the outpatient setting. Lakeview Pharmacy, Inc made up the compounded equivalent of Depo-Testosterone (150 mg of testosterone cypionate mixed in PCA cream) with an application of 6 inches squeezed from a multi-use tube of the mixture and rubbed into the skin on a daily basis. The androgen preparation was administered as a total monthly dose from about 150 mg to about 200 mg. The formulation was given to approximately 15 pre and postmenopausal women ranging in age from 24 to 80 years of age. The patient was then scheduled for a mammogram at least one month but not more than two months after administration of the androgen preparation. Mammography was performed as described in Example 1.

breast tissue [3] = test: Administration of testosterone to female patients with dense or fibrous breasts (summary statements); type: in vivo, human (pre- and post-menopausal women)
[4] = patients presenting with dense breast tissue and attendant mastalgia
[5] = pre- and post-menopausal women with fibrous or dense breasts

SMILES	alteration of the menstrual cycle by the medication (breast tissue [1])	radiographic breast density on mammographic images (breast tissue [1]; about 150 mg to about 200 mg per month, approximately 40 women, seen after only one monthly treatment, films graded with BI-RADS)	breast palpability by manual examination (breast tissue [1]; about 150 mg to about 200 mg per month, seen after only one monthly treatment)	mammographic changes in density, patients affected (breast tissue [1]; most significant in those patients with dense breasts)	lesions requiring 6-month follow up, at second mammogram (breast tissue [1]; sustained treatment for 6 or more months, some lesions)	effects on radiographic and palpable density after two months of treatment (versus one month) (breast tissue [1]; two months of androgen treatment prior to examination)	alteration of the menstrual cycle by the medication (breast tissue [2]; topical)	radiographic breast density on mammographic images (breast tissue [2]; topical PCA cream daily, total monthly dose about 150 mg to about 200 mg, approximately 15 women, seen after only one monthly treatment)	breast palpability by manual examination (breast tissue [2]; topical PCA cream daily, total monthly dose about 150 mg to about 200 mg, seen after only one monthly treatment)	mammographic changes in density, patients affected (breast tissue [2]; topical, most significant in those patients with dense breasts)	lesions requiring 6-month follow up, at second mammogram (breast tissue [2]; topical, sustained treatment for 6 or more months, some lesions)	effects on radiographic and palpable density after two months of treatment (versus one month) (breast tissue [2]; topical, two months of androgen treatment prior to examination)	visualization of breast tissue in mammographic procedures (breast tissue [3]; female patients with dense breast tissue)	mammographic opacity and overall density (breast tissue [3]; [4])	palpability of breast tissue during manual examination (breast tissue [3]; [4])	number or size of fibrous (fibrocystic) breast lesions (breast tissue [3]; [5])	palpable breast density (breast tissue [3]; [5])	radiographic density (breast tissue [3]; [5])	symptoms secondary to cyclic causes (sense of breast fullness or heaviness) (breast tissue [3]; [5])
C[C@]12CC[C@H]3[C@@H](CCC4=CC(=O)CC[C@@]43C)[C@@H]1CC[C@@H]2OC(=O)CCC1CCCC1 [Testosterone Cypionate]	nor did the medication alter the menstrual cycle	appreciable reduction	improved	noted in all patients	disappeared	More significant effects	nor did the medication alter the menstrual cycle	appreciable reduction	improved	noted in all patients	disappeared	More significant effects							
C[C@]12CC[C@H]3[C@@H](CCC4=CC(=O)CC[C@@]43C)[C@@H]1CC[C@@H]2O [testosterone]													significantly improved	marked reduction	significantly improved	decrease; also recorded: reduced	decrease	decrease	eliminated; also recorded: reduced
